Literature values in patent US20230076527A1, “TREATMENT OF PAROXYSMAL NOCTURNAL HEMOGLOBINURIA” (Apellis Pharmaceuticals, Inc., priority 2020, published 2023).

System: complement activation
Details: relative to compstatin amidated at the C-terminus; published data; cited from earlier work

Row | Substance | Activity over compstatin [xmore]
1 | Ac-1CV(2-Igl)QDWGAHRCT-CONH2 [Ac-V42Igl/H9A] | 39
2 | Ac-ICV(Bpa)QDWGAHRCT-COOH (N-acetyl, Bpa) [Ac-V4(Bpa)/H9A -OH] | 49
3 | Ac-ICVWQD(5fW)GAHRCT-CONH2 [Ac-V4W/W7(5fW)/H9A] | 121
4 | Ac-ICVDhtQDWGAHRCT-COOH [Ac-V4Dht/H9A -OH] | 5
5 | Ac-ICVVQDWGHHRCT-CONH2 [Ac-compstatin] | 3
6 | Ac-ICV(1-Nal)QDWGAHRCT-COOH (N-acetyl, 1-Nal) [Ac V4(1-Nal)/H9A -OH] | 30
7 | Ac-ICV(2-Nal)QDWGAHRCT-CONH2 (N-acetyl, C-amide, 2-Nal) [Ac-V4(2-Nal)/H9A] | 99
8 | Ac-ICV(2-Igl)QDWGAHRCT-COOH (N-acetyl, 2-Igl) [Ac-V42Igl/H9A -OH] | 37
9 | Ac-ICV(2-Nal)QDWGAHRCT-COOH (N-acetyl, 2-Nal) [Ac V4(2-Nal)/H9A -OH] | 38
10 | H-GICV(6fW)QD(6fW)GAHRCTN-COOH (6-fluoro-Trp) [+G/V4(6fW)/W7(6fW)H9A+N -OH] | 126
11 | Ac-ICVWQDWGAHRCT-CONH2 (Ac-ICVWQDWGAHRCT-NH2; cysteine pairing not given here) [Ac-V4W/H9A] | 45
12 | Ac-ICVYQDWGAHRCT-CONH2 [AC-V4Y/H9A] | 14
13 | Ac-ICV(Bpa)QDWGAHRCT-CONH2 (N-acetyl, C-amide, Bpa) [Ac-V4(Bpa)/H9A] | 86
14 | Ac-ICVWQDWGAHRCdT-COOH [AC-V4W/H9A/T13dT -OH] | 55
